Measurements published in patent US20080132505A1 (Glaxo Group Limited, priority 2004, published 2008).
pEC50: −log10 of the molar value. Counter-ions that a name gives are not always drawn. Like-named read-outs stand apart in the source and are kept apart here.

Target: human cannabinoid CB2 receptor (Homo sapiens, UniProt P34972)
Test: Cannabinoid CB2 receptor agonist activity (yeast reporter assay, FDGlu fluorescence)
Assay type: cell-based
Conditions: for Emax: read-out: efficacy value (Emax relative to HU210) at the cloned human cannabinoid CB2 receptor
Outline: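 S. cerevisiae MMY23 expressing human CB2 with a Gpa1/Gαi3 chimeric G-protein, grown 24 h at 30 °C with agonist (1% DMSO) in selective media containing 10 mM 3-aminotriazole and FDGlu, pH 7.0. Fluorescein fluorescence (485/535 nm) fitted by four-parameter curve; Emax and EMR relative to HU210.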

[1] = EC50 value at the cloned human cannabinoid CB2 receptor

Sequence of human cannabinoid CB2 receptor (P34972 whole entry): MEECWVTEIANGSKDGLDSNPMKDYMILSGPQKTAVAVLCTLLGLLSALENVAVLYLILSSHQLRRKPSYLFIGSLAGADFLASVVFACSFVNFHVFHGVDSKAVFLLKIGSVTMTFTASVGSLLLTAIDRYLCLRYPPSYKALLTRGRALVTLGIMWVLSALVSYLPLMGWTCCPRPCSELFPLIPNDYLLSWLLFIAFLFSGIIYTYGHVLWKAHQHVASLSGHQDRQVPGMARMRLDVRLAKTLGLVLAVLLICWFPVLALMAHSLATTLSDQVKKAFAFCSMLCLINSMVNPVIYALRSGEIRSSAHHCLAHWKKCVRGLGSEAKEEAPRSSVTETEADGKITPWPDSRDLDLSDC

Compound | pEC50 [1] | Emax [%] | pEC50 (read-out: EC50 value at the cloned human cannabinoid CB2 receptor)
N#Cc1ccc(Nc2ncc(C(=O)NCc3ccccc3)c(C(F)(F)F)n2)cc1 [Example 292, 2-(4-Cyano-phenylamino)-4-trifluoromethyl-pyrimidine-5-carboxylic acid benzylamide] | 6.52 to 7.70 | > 50 | –
Cc1cc(CNC(=O)c2cnc(Nc3cccc(Cl)c3)nc2C(F)(F)F)ccn1 [Example 293, 2-(3-Chloro-phenylamino)-4-trifluoromethyl-pyrimidine-5-carboxylic acid (2-methyl-pyridin-4-ylmethyl)-amide hydrochloride] | 6.52 to 7.70 | – | –
O=C(NCc1ccnc(F)c1)c1cnc(Nc2cccc(Cl)c2)nc1C(F)(F)F [Example 294, 2-(3-Chloro-phenylamino)-4-trifluoromethyl-pyrimidine-5-carboxylic acid (2-fluoro-pyridin-4-ylmethyl)-amide] | 6.52 to 7.70 | – | –
COc1cccc(Nc2ncc(C(=O)NCc3ccccc3)c(C(F)(F)F)n2)c1 [Example 295, 2-(3-Methoxy-phenylamino)-4-trifluoromethyl-pyrimidine-5-carboxylic acid benzylamide] | 6.00 to 6.52 | > 50 | –
COc1ccccc1Nc1ncc(C(=O)N(C)Cc2ccccc2)c(C(F)(F)F)n1 [Example 296, 2-(2-Methoxy-phenylamino)-4-trifluoromethyl-pyrimidine-5-carboxylic acid N-benzyl-N-methyl-amide] | – | – | 6.00 to 6.52
COc1cccc(Nc2ncc(C(=O)N(C)Cc3ccccc3)c(C(F)(F)F)n2)c1 [Example 297, 2-(3-Methoxy-phenylamino)-4-trifluoromethyl-pyrimidine-5-carboxylic acid N-benzyl-N-methyl-amide] | 6.00 to 6.52 | > 50 | –
O=C(NCc1ccc(Cl)cc1)c1cnc(Nc2cccc(Cl)c2)nc1C(F)(F)F [Example 298, 2-(3-Chloro-phenylamino)-4-trifluoromethyl-pyrimidine-5-carboxylic acid 4-chloro-benzylamide] | 6.00 to 6.52 | > 50 | –
CCN(Cc1ccccc1)C(=O)c1cnc(Nc2cccc(Cl)c2)nc1C(F)(F)F [Example 299, 2-(3-Chloro-phenylamino)-4-trifluoromethyl-pyrimidine-5-carboxylic acid N-benzyl-N-ethyl-amide] | 6.00 to 6.52 | > 50 | –
O=C(NCc1ccccc1)c1cnc(Nc2cccc(Cl)c2Cl)nc1C(F)(F)F [Example 300, 2-(2,3-Dichloro-phenylamino)-4-trifluoromethyl-pyrimidine-5-carboxylic acid benzylamide] | 6.00 to 6.52 | > 50 | –
CN(Cc1ccccc1)C(=O)c1cnc(Nc2cccc(F)c2)nc1C(F)(F)F [Example 301, 2-(3-Fluoro-phenylamino)-4-trifluoromethyl-pyrimidine-5-carboxylic acid N-benzyl-N-methyl-amide] | 6.00 to 6.52 | > 50 | –
CC(C)Cc1ccc(CNC(=O)c2cnc(Nc3cccc(Cl)c3)nc2C(F)(F)F)cc1 [Example 302, 2-(3-Chloro-phenylamino)-4-trifluoromethyl-pyrimidine-5-carboxylic acid 4-isobutyl-benzylamide] | 6.00 to 6.52 | > 50 | –
Cc1cc(CNC(=O)c2cnc(Nc3cccc(Cl)c3)nc2C(F)(F)F)ccn1 [Example 303, 2-(3-Chloro-phenylamino)-4-trifluoromethyl-pyrimidine-5-carboxylic acid (2-methyl-pyridin-4-ylmethyl)-amide] | 6.00 to 6.52 | – | –
Cc1cc(CNC(=O)c2cnc(Nc3cccc(Br)c3)nc2C(F)(F)F)ccn1 [Example 304, 2-(3-Bromo-phenylamino)-4-trifluoromethyl-pyrimidine-5-carboxylic acid (2-methyl-pyridin-4-ylmethyl)-amide] | 6.00 to 6.52 | > 50 | –
CN(Cc1ccccc1)C(=O)c1cnc(Nc2ccccc2Cl)nc1C(F)(F)F [Example 305, 2-(2-Chloro-phenylamino)-4-trifluoromethyl-pyrimidine-5-carboxylic acid N-benzyl-N-methyl-amide] | 6.00 to 6.52 | – | –
N#Cc1ccc(CNC(=O)c2cnc(Nc3cccc(F)c3)nc2C(F)(F)F)cc1 [Example 306, 2-(3-Fluoro-phenylamino)-4-trifluoromethyl-pyrimidine-5-carboxylic acid N-(4-cyano-benzyl)amide] | 6.00 to 6.52 | > 50 | –
O=C(NCc1ccc(F)c(F)c1)c1cnc(Nc2cccc(Cl)c2)nc1C(F)(F)F [Example 346, 2-(3-Chloro-phenylamino)-4-trifluoromethyl-pyrimidine-5-carboxylic acid 3,4-difluoro-benzylamide] | 6.52 to 7.70 | – | –
O=C(NCc1ccc(F)cc1)c1cnc(Nc2ccc(F)c(Cl)c2)nc1C(F)(F)F [Example 347, 2-(3-Chloro-4-fluoro-phenylamino)-4-trifluoromethyl-pyrimidine-5-carboxylic acid 4-fluoro-benzylamide] | 6.52 to 7.70 | – | –
O=C(NCc1ccc(F)cc1)c1cnc(Nc2cccc(Cl)c2F)nc1C(F)(F)F [Example 348, 2-(3-Chloro-2-fluoro-phenylamino)-4-trifluoromethyl-pyrimidine-5-carboxylic acid 4-fluoro-benzylamide] | 6.52 to 7.70 | – | –

Compound | pEC50 [1] | Emax [%] | pEC50 (read-out: EC50 value at the cloned human cannabinoid CB2 receptor)
O=C(NCc1ccc(F)cc1)c1cnc(Nc2cc(Cl)ccc2F)nc1C(F)(F)F [Example 349, 2-(5-Chloro-2-fluoro-phenylamino)-4-trifluoromethyl-pyrimidine-5-carboxylic acid 4-fluoro-benzylamide] | 6.52 to 7.70 | – | –
O=C(NCc1ccc(F)cc1)c1cnc(Nc2cc(F)cc(F)c2)nc1C(F)(F)F [Example 350, 2-(3,5-Difluoro-phenylamino)-4-trifluoromethyl-pyrimidine-5-carboxylic acid 4-fluoro-benzylamide] | 6.52 to 7.70 | – | –
N#Cc1ccc(Nc2ncc(C(=O)NCc3ccc(F)cc3)c(C(F)(F)F)n2)cc1Cl [Example 351, 2-(3-Chloro-4-cyano-phenylamino)-4-trifluoromethyl-pyrimidine-5-carboxylic acid 4-fluoro-benzylamide] | 6.52 to 7.70 | > 50 | –
COc1cccc(Nc2ncc(C(=O)NCc3ccncc3)c(C(F)(F)F)n2)c1 [Example 352, 2-(3-Methoxy-phenylamino)-4-trifluoromethyl-pyrimidine-5-carboxylic acid (pyridin-4-ylmethyl)-amide] | 6.52 to 7.70 | – | –
O=C(NCc1ccnc(F)c1)c1cnc(Nc2cccc(Br)c2)nc1C(F)(F)F [Example 353, 2-(3-Bromo-phenylamino)-4-trifluoromethyl-pyrimidine-5-carboxylic acid (2-fluoro-pyridin-4-ylmethyl)-amide] | 6.52 to 7.70 | – | –
O=C(NCc1ccnc(F)c1)c1cnc(Nc2cccc(F)c2)nc1C(F)(F)F [Example 354, 2-(3-Fluoro-phenylamino)-4-trifluoromethyl-pyrimidine-5-carboxylic acid (2-fluoro-pyridin-4-ylmethyl)-amide] | 6.52 to 7.70 | – | –
O=C(NCc1ccnc(F)c1)c1cnc(Nc2cc(Cl)ccc2Cl)nc1C(F)(F)F [Example 355, 2-(2,5-Dichloro-phenylamino)-4-trifluoromethyl-pyrimidine-5-carboxylic acid (2-fluoro-pyridin-4-ylmethyl)-amide] | 6.52 to 7.70 | – | –
O=C(NCc1ccnc(F)c1)c1cnc(Nc2cc(Cl)cc(Cl)c2)nc1C(F)(F)F [Example 356, 2-(3,5-Dichloro-phenylamino)-4-trifluoromethyl-pyrimidine-5-carboxylic acid (2-fluoro-pyridin-4-ylmethyl)-amide] | 6.52 to 7.70 | – | –
O=C(NCc1ccnc(F)c1)c1cnc(Nc2ccc(Cl)c(Cl)c2)nc1C(F)(F)F [Example 357, 2-(3,4-Dichloro-phenylamino)-4-trifluoromethyl-pyrimidine-5-carboxylic acid (2-fluoro-pyridin-4-ylmethyl)-amide] | 6.52 to 7.70 | – | –
O=C(NCc1ccnc(F)c1)c1cnc(Nc2c(Cl)cccc2Cl)nc1C(F)(F)F [Example 358, 2-(2,6-Dichloro-phenylamino)-4-trifluoromethyl-pyrimidine-5-carboxylic acid (2-fluoro-pyridin-4-ylmethyl)-amide] | 6.52 to 7.70 | – | –
O=C(NCc1ccnc(F)c1)c1cnc(Nc2cccc(Cl)c2Cl)nc1C(F)(F)F [Example 359, 2-(2,3-Dichloro-phenylamino)-4-trifluoromethyl-pyrimidine-5-carboxylic acid (2-fluoro-pyridin-4-ylmethyl)-amide] | 6.52 to 7.70 | – | –
O=C(NCc1ccnc(F)c1)c1cnc(Nc2ccc(Cl)cc2Cl)nc1C(F)(F)F [Example 360, 2-(2,4-Dichloro-phenylamino)-4-trifluoromethyl-pyrimidine-5-carboxylic acid (2-fluoro-pyridin-4-ylmethyl)-amide] | 6.52 to 7.70 | – | –
N#Cc1cccc(Nc2ncc(C(=O)NCc3ccccc3)c(C(F)(F)F)n2)c1 [Example 362, 2-(3-Cyano-phenylamino)-4-trifluoromethyl-pyrimidine-5-carboxylic acid benzylamide] | 6.52 to 7.70 | > 50 | –
O=C(NCc1ccccc1)c1cnc(Nc2c(Cl)cccc2Cl)nc1C(F)(F)F [Example 363, 2-(2,6-Dichloro-phenylamino)-4-trifluoromethyl-pyrimidine-5-carboxylic acid benzylamide] | 6.52 to 7.70 | – | –
O=C(NCc1ccc(F)cc1)c1cnc(Nc2cccc(Cl)c2Cl)nc1C(F)(F)F [Example 364, 2-(2,3-Dichloro-phenylamino)-4-trifluoromethyl-pyrimidine-5-carboxylic acid 4-fluoro-benzylamide] | 6.52 to 7.70 | – | –
O=C(NCc1ccc(F)cc1)c1cnc(Nc2ccc(Cl)cc2Cl)nc1C(F)(F)F [Example 365, 2-(2,4-Dichloro-phenylamino)-4-trifluoromethyl-pyrimidine-5-carboxylic acid 4-fluoro-benzylamide] | 6.52 to 7.70 | – | –
O=C(NCc1ccc(F)cc1)c1cnc(Nc2cc(Cl)ccc2Cl)nc1C(F)(F)F [Example 366, 2-(2,5-Dichloro-phenylamino)-4-trifluoromethyl-pyrimidine-5-carboxylic acid 4-fluoro-benzylamide] | 6.52 to 7.70 | – | –
